# Measurements: patent publication EP0672658B1, “Antithrombotic agents” (priority 1994, dated 1995)
# Counter-ions that a name gives are not always drawn.
# Assays:
# Human Thrombin = Human Thrombin (Homo sapiens, UniProt P00734); test: biochemical; settings: read-out: Kass Human Thrombin (converted)
# Trypsin = target: T1, Trypsin (Bos taurus, UniProt P00760); test: biochemical; parameters: species or system Bovine; settings: read-out: Kass Trypsin (converted)
# T1 sequence (P00760 24-246): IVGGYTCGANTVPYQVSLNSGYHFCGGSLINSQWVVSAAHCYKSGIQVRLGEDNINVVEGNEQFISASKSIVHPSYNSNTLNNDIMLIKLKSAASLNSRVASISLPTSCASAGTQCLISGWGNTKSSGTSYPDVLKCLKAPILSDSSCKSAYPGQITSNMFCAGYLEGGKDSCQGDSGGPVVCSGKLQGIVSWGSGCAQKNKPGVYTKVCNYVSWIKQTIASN
# Protocol: By substantially following the procedures described above for human thrombin, and using other human blood coagulation system serine proteases and proteases of the fibrinolytic system with the appropriate chromogenic substrates, identified below, selectivity of the compounds of the present invention with respect to the coagulation factor serine proteases and with respect to the fibrinolytic system serine proteases are evaluated as well as their substantial lack of interference with serine proteases of the fibrinolytic system. Thrombin inhibitors preferably should spare fibrinolysis induced by urokinase, tissue plasminogen activator (t-PA) and streptokinase. This would be important to the therapeutic use of such agents as an adjunct to streptokinase, t-PA or urokinase thrombolytic therapy and to the use of such agents as an endogenous fibrinolysis-sparing (with respect to t-PA and urokinase) antithrombotic agent. In addition to the lack of interference with the amidase activity of the fibrinolytic proteases, such fibrinolytic system sparing can be studied by the use of human plasma clots and their lysis by the respective fibrinolytic plasminogen activators.
# Human factors X, Xa, IXa, XIa, and XIIa are purchased from Enzyme Research Laboratories, South Bend, Indiana; human urokinase from Leo Pharmaceuticals, Denmark; and recombinant activated Protein C (aPC) is prepared at Eli Lilly and Co. substantially according to U.S. Patent 4,981,952. Chromogenic substrates: N-Benzoyl-Ile-Glu-Gly-Arg-p-nitroanilide (for factor Xa); N-Cbz-D-Arg-Gly-Arg-p-nitroanilide (for factor IXa assay as the factor Xa substrate); Pyroglutamyl-Pro-Arg-p-nitroanilide (for Factor XIa and for aPC); H-D-Pro-Phe-Arg-p-nitroanilide (for factor XIIa); and Pyroglutamyl-Gly-Arg-p-nitroanilide (for urokinase); are purchased from KabiVitrum, Stockholm, Sweden, or from Midwest Biotech, Fishers, Indiana. Bovine trypsin is purchased from Worthington Biochemicals, Freehold, New Jersey, and human plasma kallikrein from Kabi Vitrum, Stockholm, Sweden. Chromogenic substrate H-D-Pro-Phe-Arg-p-nitroanilide for plasma kallikrein is purchased from Kabi Vitrum, Stockholm, Sweden. N-Benzoyl-Phe-Val-Arg-p-nitroanilide, the substrate for human thrombin and for trypsin, is synthesized according to procedures described above for the compounds of the present invention, using known methods of peptide coupling from commercially available reactants or purchased from Midwest Biotech, Fishers, Indiana.
# human or animal plasma [1] = test: Anticoagulation determination in plasma: thrombin time (TT); type: biochemical; settings: concentration doubling thrombin time
# Protocol: (§1) Dog plasma and rat plasma is obtained from conscious mixed-breed hounds (either sex, Hazelton-LRE, Kalamazoo, Michigan, U.S.A.) or from anesthetized male Sprague-Dawley rats (Harlan Sprague-Dawley, Inc., Indianapolis, Indiana, U.S.A.) by venipuncture into 3.8 percent citrate. Fibrinogen is prepared from in-date ACD human blood as the fraction I-2 according to previous procedures and specifications. Smith, Biochem. J., 185, 1-11 (1980); and Smith, et al., Biochemistry, 11, 2958-2967 (1972). Human fibrinogen is also purchased as 98 percent pure/plasmin free from American Diagnostica, Greenwich, Connecticut. Coagulation reagents ACTIN, Thromboplastin, and Human plasma are from Baxter Healthcare Corp., Dade Division, Miami, Florida. Bovine thrombin from Parke-Davis (Ann Detroit, Michigan) is used for coagulation assays in plasma.
# (§2) Coagulation assay procedures are as previously described. Smith, et al., Thrombosis Research, 50, 163-174 (1988). A CoAScreener coagulation instrument (American LABor, Inc.) is used for all coagulation assay measurements. The prothrombin time (PT) is measured by adding 0.05 mL saline and 0.05 mL Thromboplastin-C reagent to 0.05 mL test plasma. The activated partial thromboplastin time (APTT) is measured by incubation of 0.05 mL test plasma with 0.05 mL Actin reagent for 120 seconds followed by 0.05 mL CaCl2 (0.02 M). The thrombin time (TT) is measured by adding 0.05 mL saline and 0.05 mL thrombin (10 NIH units/mL) to 0.05 mL test plasma. The compounds of Formula I are added to human or animal plasma over a wide range of concentrations to determine prolongation effects on the APTT, PT, and TT assays. Linear extrapolations are performed to estimate the concentrations required to double the clotting time for each assay.
# human or animal plasma [2] = test: Anticoagulation determination in plasma: activated partial thromboplastin time (APTT); type: biochemical; settings: concentration doubling activated partial thromboplastin time
# Protocol: as §1, §2
# human or animal plasma [3] = test: Anticoagulation determination in plasma: prothrombin time (PT); type: biochemical; settings: concentration doubling prothrombin time
# Protocol: as §1, §2
SMILES,Kd (Human Thrombin),Kd (Trypsin),Human Plasma Anticoagulation 2x Clotting time (ng/mL) TT (human or animal plasma [1]),Human Plasma Anticoagulation 2x Clotting time (ng/mL) APTT (human or animal plasma [2]),Human Plasma Anticoagulation 2x Clotting time (ng/mL) PT (human or animal plasma [3])
"CCS(=O)(=O)N[C@H](Cc1ccccc1)C(=O)N1CCC[C@H]1C(=O)NCCc1cccc(NC(=N)N)c1 [Example 37, EtSO2-D-Phe-Pro-m-NHCH2CH2C6H4NHC(NH)NH2·HCl]",50000 nM,> 111000 nM,">9,000 ng/mL",">9,000 ng/mL",">9,000 ng/mL"
"Nc1ccc(CNC(=O)[C@@H]2CCCN2C(=O)[C@@H](CC2CCCCC2)NCC(=O)O)cc1 [Example 62, HO2CCH2-D-Cha-Pro-4-NHCH2C6H4NH2·HCl]",132 nM,,54 ng/mL,,
"Nc1ccc(CCNC(=O)[C@@H]2CCCN2C(=O)[C@@H](CC2CCCCC2)NCC(=O)O)cc1 [Example 63, HO2CCH2-D-Cha-Pro-4-NHCH2CH2C6H4NH2·HCl]",3230 nM,,680 ng/mL,,
N=C(N)c1ccc(CNC(=O)[C@@H]2CCCN2C(=O)[C@@H](CC2CCCCC2)NCC(=O)O)s1 [Example 65],,1.75 nM,1 ng/mL,,
"N=C(N)c1ccc(CNC(=O)[C@@H]2CCCN2C(=O)[C@@H](CC2CCCCC2)NCC(=O)O)nc1 [Example 66, HO2CCH2-D-Cha-Pro-2-NHCH2-5-amidinopyridine·HCl]",8.33 nM,217 nM,7.9 ng/mL,180 ng/mL,270 ng/mL
"N=C(N)C1CCC(CNC(=O)[C@@H]2CCCN2C(=O)[C@@H](CC2CCCCC2)NCC(=O)O)NC1 (stereo partly drawn) [Example 67, HO2CCH2-D-Cha-Pro-2-NHCH2-5-amidinopiperidine·HCl]",90.9 nM,,34. ng/mL,"1,800 ng/mL","1,300 ng/mL"
"N=C(N)C1=CNC(CNC(=O)[C@@H]2CCCN2C(=O)[C@@H](CC2CCCCC2)NCC(=O)O)CC1 (stereo partly drawn) [Example 68, HO2CCH2-D-Cha-Pro-2-NHCH2-5-amidino-5,6-dehydro-piperidine·HCl]",1.67 nM,,4. ng/mL,49 ng/mL,190 ng/mL
"N=C(N)c1ccc(CNC(=O)[C@@H]2CCCN2C(=O)[C@@H](CC2CCCCC2)NCC(=O)O)nn1 [Example 69, HO2CCH2-D-Cha-Pro-3-NHCH2-6-amidinopyridazine·HCl]",2.94 nM,270 nM,5. ng/mL,110 ng/mL,220 ng/mL
"N=C(N)N1CC=C(CNC(=O)[C@@H]2CCCN2C(=O)[C@@H](CC2CCCCC2)NCC(=O)O)CC1 [Example 70, HO2CCH2-D-Cha-Pro-4-NHCH2-1-amidino-3,4-dehydro-piperidine·HCl]",2.33 nM,102 nM,2 ng/mL,160 ng/mL,180 ng/mL
"Nc1cc(CNC(=O)[C@@H]2CCCN2C(=O)[C@@H](CC2CCCCC2)NCC(=O)O)ccn1 [Example 73, HO2CCH2-D-Cha-Pro-4-NHCH2-2-aminopyridine·HCl]",35.7 nM,,21 ng/mL,340 ng/mL,330 ng/mL
"Nc1ccc(CNC(=O)[C@@H]2CCCN2C(=O)[C@@H](CC2CCCCC2)NCC(=O)O)cn1 [Example 74, HO2CCH2-D-Cha-Pro-5-NHCH2-2-aminopyridine·HCl]",34.5 nM,,20 ng/mL,420 ng/mL,350 ng/mL
"Nc1ccc(CCNC(=O)[C@@H]2CCCN2C(=O)[C@@H](CC2CCCCC2)NCC(=O)O)cn1 [Example 75, HO2CCH2-D-Cha-Pro-5-NHCH2CH2-2-aminopyridine·HCl]",2220 nM,,,,
"Nc1cc(CCNC(=O)[C@@H]2CCCN2C(=O)[C@@H](CC2CCCCC2)NCC(=O)O)ccn1 [Example 76, HO2CCH2-D-Cha-Pro-4-NHCH2CH2-2-aminopyridine·HCl]",83.3 nM,2780 nM,29 ng/mL,490 ng/mL,560 ng/mL
"Nc1ccc(CNC(=O)[C@@H]2CCCN2C(=O)[C@@H](CC2CCCCC2)NCC(=O)O)cc1F [Example 77, HO2CCH2-D-Cha-Pro-4-NHCH2-2-F-aniline·HCl]",90.9 nM,,53 ng/mL,"1,600 ng/mL",890 ng/mL
"NCc1ccc(CNC(=O)[C@@H]2CCCN2C(=O)[C@@H](CC2CCCCC2)NCC(=O)O)cc1 [Example 78, HO2CCH2-D-Cha-Pro-4-NHCH2C6H4CH2NH2·HCl]",90.9 nM,116 nM,46 ng/mL,430 ng/mL,760 ng/mL
"NCC1CCC(CNC(=O)[C@@H]2CCCN2C(=O)[C@@H](CC2CCCCC2)NCC(=O)O)CC1 (stereo partly drawn) [Example 79, HO2CCH2-D-Cha-Pro-4-NHCH2C6H10CH2NH2·HCl]",500 nM,4170 nM,140 ng/mL,"1,700 ng/mL","2,400 ng/mL"
"CCS(=O)(=O)N[C@H](CC1CCCCC1)C(=O)N1CCC[C@H]1C(=O)NCc1ccc(N)cc1F [Example 82, EtSO2-D-Cha-Pro-4-NHCH2-3-F-C6H3NH2·HCl]",200 nM,,130 ng/mL,"3,800 ng/mL","3,000 ng/mL"
